biological target: recombinant CD73 (Homo sapiens (Human), UniProt P21589); assay: Assay 1: Inhibition of the CD73 enzyme in vitro (0.5 nM CD73, 30 min room temperature, Malachite Green); type: biochemical; conditions: 0.5 nM CD73, 30 minutes at room temperature
Protocol: For measurements of soluble CD73 enzyme activity, recombinant CD73 was obtained from R&D Systems, Cat. No. 5795-EN-010. […] Reactions were allowed to proceed for 30 minutes at room temperature before the addition of 100 μL Malachite Green (Cell Signaling Technology, Cat. No. 12776). After 5 minutes at room temperature, absorbance at 630 nm was determined on a microplate spectrophotometer. The concentration of inorganic phosphate was determined using a phosphate standard curve.

recombinant CD73, sequence (P21589 27-547): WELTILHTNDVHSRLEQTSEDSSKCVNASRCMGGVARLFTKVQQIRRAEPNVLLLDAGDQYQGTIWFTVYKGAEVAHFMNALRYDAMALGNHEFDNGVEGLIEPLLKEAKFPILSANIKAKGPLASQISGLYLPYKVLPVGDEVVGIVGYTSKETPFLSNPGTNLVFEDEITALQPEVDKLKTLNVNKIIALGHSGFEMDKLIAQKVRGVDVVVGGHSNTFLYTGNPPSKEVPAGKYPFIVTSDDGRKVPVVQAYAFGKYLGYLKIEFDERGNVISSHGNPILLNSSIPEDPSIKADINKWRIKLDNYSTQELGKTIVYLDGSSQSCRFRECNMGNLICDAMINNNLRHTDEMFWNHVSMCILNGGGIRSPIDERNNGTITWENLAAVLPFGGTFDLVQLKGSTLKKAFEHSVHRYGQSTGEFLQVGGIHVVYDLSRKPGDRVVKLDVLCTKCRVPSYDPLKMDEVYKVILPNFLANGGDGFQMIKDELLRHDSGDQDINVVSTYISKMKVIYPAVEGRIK

Going from `C#C[C@@]1(O)[C@@H](COC(Cc2ccccc2)(C(=O)O)c2csc(C(=O)O)n2)O[C@@H](n2cnc3c(N)nc(Cl)nc32)[C@@H]1O` (stereo partly drawn) [Example 196, 4-(1-(((2R,3S,4R,5R)-5-(6-amino-2-chloro-9H-purin-9-yl)-3-ethynyl-3,4-dihydroxytetrahydrofuran-2-yl)methoxy)-1-carboxy-2-phenylethyl)thiazole-2-carboxylic acid] to `C#C[C@@]1(O)[C@@H](CO[C@@](Cc2ccccc2)(C(=O)O)c2cscn2)O[C@@H](n2cnc3c(N)nc(Cl)nc32)[C@@H]1O` (single isomer, unassigned) [Example 181], the IC50 falls from 82 nM to 21 nM (3.9-fold).

Compared with `C#C[C@@]1(O)[C@@H](CO[C@](C#N)(Cc2ccccc2)C(=O)O)O[C@@H](n2cnc3c(N)nc(Cl)nc32)[C@@H]1O` (single isomer, unassigned) [Example 189], `C#C[C@@]1(O)[C@@H](COC(Cc2cccc(OC)c2)(C(=O)O)C(=O)O)O[C@@H](n2cnc3c(N)nc(Cl)nc32)[C@@H]1O` [Example 52, 2-(((2R,3S,4R,5R)-5-(6-amino-2-chloro-9H-purin-9-yl)-3-ethynyl-3,4-dihydroxytetrahydrofuran-2-yl)methoxy)-2-(3-methoxybenzyl)malonic acid] is 460-fold lower in IC50: 1850 nM for the first, 4 nM for the second.

Compared with `C[C@@]1(O)[C@@H](COC(Cc2ccc(-c3ccccc3C(=O)O)cc2)(C(=O)O)c2cscn2)O[C@@H](n2cnc3c(N)nc(Cl)nc32)[C@@H]1O` (stereo partly drawn) [Example 200, 4′-(2-(((2R,3S,4R,5R)-5-(6-amino-2-chloro-9H-purin-9-yl)-3,4-dihydroxy-3-methyltetrahydrofuran-2-yl)methoxy)-2-carboxy-2-(thiazol-4-yl)ethyl)-[1,1′-biphenyl]-2-carboxylic acid], `C#C[C@@]1(O)[C@@H](CO[C@](Cc2ccccc2)(C(=O)O)c2cscn2)O[C@@H](n2cnc3c(NC)nc(Cl)nc32)[C@@H]1O` [Example 187, (S)-2-(((2R,3S,4R,5R)-5-(2-chloro-6-(methylamino)-9H-purin-9-yl)-3-ethynyl-3,4-dihydroxytetrahydrofuran-2-yl)methoxy)-3-phenyl-2-(thiazol-4-yl)propanoic acid] is 610-fold lower in IC50: 6090 nM for the first, 10 nM for the second.

Going from `C#C[C@@]1(O)[C@@H](COC(C(N)=O)C(N)=O)O[C@@H](n2cnc3c(NC4CCCC4)nc(Cl)nc32)[C@@H]1O` [Example 116, 2-(((2R,3S,4R,5R)-5-(2-chloro-6-(cyclopentylamino)-9H-purin-9-yl)-3-ethynyl-3,4-dihydroxytetrahydrofuran-2-yl)methoxy)malonamide] to `C#C[C@@]1(O)[C@@H](COC(C(N)=O)C(=O)O)O[C@@H](n2cnc3c(NC4CCCC4)nc(Cl)nc32)[C@@H]1O` (stereo partly drawn) [Example 115, 3-amino-2-(((2R,3S,4R,5R)-5-(2-chloro-6-(cyclopentylamino)-9H-purin-9-yl)-3-ethynyl-3,4-dihydroxytetrahydrofuran-2-yl)methoxy)-3-oxopropanoic acid], the IC50 falls from 8050 nM to 135 nM (60-fold). The second is the more potent here.

`C#C[C@@]1(O)[C@@H](COC(Cc2ccccc2)(C(=O)O)C(=O)O)O[C@@H](n2cnc3c(NCc4ccccc4)nc(Cl)nc32)[C@@H]1O` [Example 59, 2-benzyl-2-(((2R,3S,4R,5R)-5-(6-(benzylamino)-2-chloro-9H-purin-9-yl)-3-ethynyl-3,4-dihydroxytetrahydrofuran-2-yl)methoxy)malonic acid] and `C#C[C@@]1(O)[C@@H](COC(Cc2ccccc2)(C(=O)O)C(=O)O)O[C@@H](n2cnc3c(NCC4CC4)nc(Cl)nc32)[C@@H]1O` [Example 92, 2-benzyl-2-(((2R,3S,4R,5R)-5-(2-chloro-6-((cyclopropylmethyl)amino)-9H-purin-9-yl)-3-ethynyl-3,4-dihydroxytetrahydrofuran-2-yl)methoxy)malonic acid] are within 1.5-fold of each other in IC50: 1 nM for the first, 0.8 nM for the second.

Going from `C#C[C@@]1(O)[C@@H](COC(C(=O)O)S(=O)(=O)c2ccccc2)O[C@@H](n2cnc3c(NC4CCCC4)nc(Cl)nc32)[C@@H]1O` (stereo partly drawn) [Example 129, 2-(((2R,3S,4R,5R)-5-(2-chloro-6-(cyclopentylamino)-9H-purin-9-yl)-3-ethynyl-3,4-dihydroxytetrahydrofuran-2-yl)methoxy)-2-(phenylsulfonyl)acetic acid] to `C#C[C@@]1(O)[C@@H](COC(Cc2ccccc2)(C(=O)O)C(=O)O)O[C@@H](n2cnc3c(NC4CCOCC4)nc(Cl)nc32)[C@@H]1O` [Example 60, 2-benzyl-2-(((2R,3S,4R,5R)-5-(2-chloro-6-((tetrahydro-2H-pyran-4-yl)amino)-9H-purin-9-yl)-3-ethynyl-3,4-dihydroxytetrahydrofuran-2-yl)methoxy)malonic acid], the IC50 falls from 1580 nM to 3 nM (530-fold).

`C#C[C@@]1(O)[C@@H](COC(C(=O)O)c2csc(C(=O)O)n2)O[C@@H](n2cnc3c(N)nc(Cl)nc32)[C@@H]1O` (stereo partly drawn) [Example 195, 4-((((2R,3S,4R,5R)-5-(6-amino-2-chloro-9H-purin-9-yl)-3-ethynyl-3,4-dihydroxytetrahydrofuran-2-yl)methoxy)(carboxy)methyl)thiazole-2-carboxylic acid] and `C#C[C@@]1(O)[C@@H](CO[C@H](C(=O)O)c2csc(-c3ccccc3)n2)O[C@@H](n2cnc3c(N)nc(Cl)nc32)[C@@H]1O` (single isomer, unassigned) [Example 193] are within 1.5-fold of each other in IC50: 236 nM for the first, 263 nM for the second.

`C#C[C@@]1(O)[C@@H](COC(Cc2ccccc2)(C(=O)O)C(=O)O)O[C@@H](n2cnc3c(NC(C)C)nc(Cl)nc32)[C@@H]1O` [Example 93, 2-benzyl-2-(((2R,3S,4R,5R)-5-(2-chloro-6-(isopropylamino)-9H-purin-9-yl)-3-ethynyl-3,4-dihydroxytetrahydrofuran-2-yl)methoxy)malonic acid] and `C#C[C@@]1(O)[C@@H](COC(Cc2ccccc2)(C(=O)O)C(=O)O)O[C@@H](n2cnc3c(NCCN(CC)CC)nc(Cl)nc32)[C@@H]1O` [Example 61, 2-benzyl-2-(((2R,3S,4R,5R)-5-(2-chloro-6-((2-(diethylamino)ethyl)-amino)-9H-purin-9-yl)-3-ethynyl-3,4-dihydroxytetrahydrofuran-2-yl)methoxy)-malonic acid] are within 1.5-fold of each other in IC50: 1.7 nM for the first, 1.5 nM for the second.

Compared with `C#C[C@@]1(O)[C@@H](COC(Cc2ccccc2)(C(=O)O)C(=O)O)O[C@@H](n2cnc3c(N4CCCC4)nc(Cl)nc32)[C@@H]1O` [Example 90, 2-benzyl-2-(((2R,3S,4R,5R)-5-(2-chloro-6-(pyrrolidin-1-yl)-9H-purin-9-yl)-3-ethynyl-3,4-dihydroxytetrahydrofuran-2-yl)methoxy)malonic acid], `C#C[C@@]1(O)[C@@H](COC(Cc2cccc(OC(F)(F)F)c2)(C(=O)O)C(=O)O)O[C@@H](n2cnc3c(N)nc(Cl)nc32)[C@@H]1O` [Example 23, 2-(((2R,3S,4R,5R)-5-(6-amino-2-chloro-9H-purin-9-yl)-3-ethynyl-3,4-dihydroxytetrahydrofuran-2-yl)methoxy)-2-(3-(trifluoromethoxy)benzyl)malonic acid] is 5.6-fold higher in IC50: 0.9 nM for the first, 5 nM for the second. The first is the more potent here.

Compared with `C#C[C@@]1(O)[C@@H](COC(C(=O)NO)c2cscn2)O[C@@H](n2cnc3c(N)nc(Cl)nc32)[C@@H]1O` (single isomer, unassigned) [Example 185], `C#C[C@@]1(O)[C@@H](CO[C@@H](C(=O)O)c2csc(-c3ccccc3)n2)O[C@@H](n2cnc3c(N)nc(Cl)nc32)[C@@H]1O` (single isomer, unassigned) [Example 194] is 35-fold lower in IC50: 11700 nM for the first, 336 nM for the second. The second is the more potent here.

Going from `C#C[C@@]1(O)[C@@H](COP(=O)(O)CP(=O)(O)O)O[C@@H](n2cnc3c(N)nc(Cl)nc32)[C@@H]1O` [Example 202, (((((2R,3S,4R,5R)-5-(6-amino-2-chloro-9H-purin-9-yl)-3-ethynyl-3,4-dihydroxytetrahydrofuran-2-yl)methoxy)(hydroxy)phosphoryl)methyl)phosphonic acid] to `C#C[C@@]1(O)[C@@H](COC(C(=O)O)C(=O)N2CCCC2)O[C@@H](n2cnc3c(N)nc(Cl)nc32)[C@@H]1O` (stereo partly drawn) [Example 113, 2-(((2R,3S,4R,5R)-5-(6-amino-2-chloro-9H-purin-9-yl)-3-ethynyl-3,4-dihydroxytetrahydrofuran-2-yl)methoxy)-3-oxo-3-(pyrrolidin-1-yl)propanoic acid], the IC50 rises from 148 nM to 331 nM (2.2-fold).

Going from `C#C[C@@]1(O)[C@@H](COC(Cc2cccc(C(F)(F)F)c2)(C(=O)O)C(=O)OCC)O[C@@H](n2cnc3c(N)nc(Cl)nc32)[C@@H]1O` (stereo partly drawn) [Example 49, 2-(((2R,3S,4R,5R)-5-(6-amino-2-chloro-9H-purin-9-yl)-3-ethynyl-3,4-dihydroxytetrahydrofuran-2-yl)methoxy)-3-ethoxy-3-oxo-2-(3-(trifluoromethyl)-benzyl)propanoic acid] to `Nc1nc(Cl)nc2c1ncn2[C@@H]1O[C@H](COC(C(=O)O)C(=O)O)[C@](O)(C#Cc2ccnn2Cc2ccccc2)[C@H]1O` [Example 29, 2-(((2R,3S,4R,5R)-5-(6-amino-2-chloro-9H-purin-9-yl)-3-((1-benzyl-1H-pyrazol-5-yl)ethynyl)-3,4-dihydroxytetrahydrofuran-2-yl)methoxy)malonic acid], the IC50 falls from 273 nM to 2 nM (140-fold). The second is the more potent here.

Compared with `C[C@@]1(O)[C@@H](COP(=O)(O)CP(=O)(O)O)O[C@@H](n2cnc3c(NCc4ccccc4)nc(Cl)nc32)[C@@H]1O` [Example 205, (((((2R,3S,4R,5R)-5-(6-(benzylamino)-2-chloro-9H-purin-9-yl)-3,4-dihydroxy-3-methyltetrahydrofuran-2-yl)methoxy)(hydroxy)phosphoryl)methyl)phosphonic acid], `C#C[C@@]1(O)[C@@H](COC(C(=O)OCC)P(=O)(O)O)O[C@@H](n2cnc3c(N4CCOCC4)nc(Cl)nc32)[C@@H]1O` (stereo partly drawn) [Example 124, (1-(((2R,3S,4R,5R)-5-(2-chloro-6-morpholino-9H-purin-9-yl)-3-ethynyl-3,4-dihydroxytetrahydrofuran-2-yl)methoxy)-2-ethoxy-2-oxoethyl)phosphonic acid] is 2.2-fold higher in IC50: 12 nM for the first, 27 nM for the second.
